Reference: patent US20110124674A1, “5/5-OR 5/6-MEMBERED CONDENSED RING CYCLOALKYLAMINE DERIVATIVE” (priority 2008, published 2011)

molecular target: T1, human MCH-1R (Homo sapiens, UniProt Q99705); assay: MCH binding inhibition test ([125I]MCH binding to membranes of MCH-1R expressing CHO-K1 cells); details: membranes of CHO-K1 cells expressing human MCH-1R; 50 pM [125I]MCH; 25° C., 1 hour; pH 7.4; read-out: IC50 (50% inhibition concentration of test compound to the specific [125I]MCH binding)
T1 construct: expressed in transfected cells; host or cells: CHO-K1 (American Type Culture Collection), vector pEF/myc/cyto
Source text: Pharmacological Test Example: MCH Binding Inhibition Test
A human MCH-1R encoding cDNA sequence [FEBS Letters, Vol. 398, 253 (1996); Biochimica et Biophisica Acta, Vol. 1401, 216 (1998)] was cloned to a plasmid vector pEF/myc/cyto (by Invitrogen Corporation). The obtained expression vector was transfected to host cells CHO-K1 (American Type Culture Collection) using Lipofectamine Plus Reagent (by Life Technology Inc.) to provide MCH-1R expression cells.
Membrane samples prepared from the MCH-1R expression cells were incubated with each test compound and 50 pM of [^125I]MCH (by NEN Co.), in an assay buffer (50 mM Tris buffer comprising 10 mM magnesium chloride, 2 mM ethylenediamine tetraacetate, 0.01% bacitracin and 0.2% bovine serum albumin; pH 7.4) at 25° C. for an hour, followed by filtration through a glass filter GF/C (by Wattman Co.). After washing the glass filter with 50 mM Tris buffer (pH 7.4) comprising 10 mM magnesium chloride, 2 mM ethylenediamine tetraacettic acid and 0.04% Tween-20, the radio activity on the glass filter was measured. The non-specific binding was measured in the presence of 1 μM human MCH, and the 50% inhibition concentration (IC50 value) of each test compound to the specific [^125I]MCH binding was determined.

T1 sequence (Q99705 whole entry): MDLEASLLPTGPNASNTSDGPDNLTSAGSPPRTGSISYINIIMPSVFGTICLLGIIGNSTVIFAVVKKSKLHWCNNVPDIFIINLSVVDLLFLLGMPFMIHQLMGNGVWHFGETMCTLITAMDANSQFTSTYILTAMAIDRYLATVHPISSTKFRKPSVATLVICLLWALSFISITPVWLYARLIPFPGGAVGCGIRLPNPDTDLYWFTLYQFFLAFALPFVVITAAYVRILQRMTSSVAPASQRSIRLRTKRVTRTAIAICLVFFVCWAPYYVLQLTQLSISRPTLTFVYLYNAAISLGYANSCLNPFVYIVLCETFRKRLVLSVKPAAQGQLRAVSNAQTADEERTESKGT

SMILES	IC50 [nM]
COc1cc(C(=O)NC2CCN(Cc3cn(C)c4ccccc34)CC2)cc(OC)c1C [Example 2-2, 4-methyl-N-{1-[(1-methyl-1-H-indol-3-yl)methyl]-4-piperidinyl}-3,5-bis(methyloxy)benzamide]	13
C#CCn1cc(CN2CCC(NC(=O)c3cc(OC)c(C)c(OC)c3)CC2)c2ccccc21 [Example 2-10, 4-methyl-3,5-bis(methyloxy)-N-(1-{[1-(2-propyn-1-yl)-1H-indol-3-yl]methyl}-4-piperidinyl)benzamide]	22
COc1cc(C(=O)NC2CCN(Cc3[nH]c4ccccc4c3C)CC2)cc(OC)c1C [Example 2-18, 4-methyl-N-{1-[(3-methyl-1H-indol-2-yl)methyl]-4-piperidinyl}-3,5-bis(methyloxy)benzamide]	6.8

The next lines start with the values.

IC50 [nM]	SMILES
26	COc1cc(C(=O)NC2CCN(Cc3c(C)n(C)c4ccccc34)CC2)cc(OC)c1C [Example 2-5, N-{1-[(1,2-dimethyl-1H-indol-3-yl)methyl]-4-piperidinyl}-4-methyl-3,5-bis(methyloxy)benzamide]
16	COc1cc(C(=O)NC2CCN(Cc3cc4sccc4n3C)CC2)cc(OC)c1C [Example 2-25, 4-methyl-3,5-bis(methyloxy)-N-{1-[(4-methyl-4H-thieno[3,2-b]pyrrol-5-yl)methyl]-4-piperidinyl]benzamide]
